Article PMC8434012 (Molecules, 2021)
Where a name gives a salt, the structure may show the parent alone.

Key:
[1] = rat, in vivo, po; cited from earlier work
[2] = test system: SH-SY5Y neuroblastoma cells; assay: MTT cell viability assay, Aβ(25–35)-induced neurotoxicity; format: cell-based; details: Aβ(25–35) 25 μM
Protocol: Cells were cultured in MEM supplemented with 10% heat-inactivated defined FBS, and an antibiotic mixture of 100 units/mL of penicillin and 100 μg/mL streptomycin, and grown at 37 °C in a humid atmosphere with 5% CO2.
Following the treatment, cell viability was assessed using MTT reduction assay. After adding 10 μL/well of MTT (5 mg/L) and incubating for 4 h, the supernatants were removed and 100 μL of DMSO was added in wells. After 1 h incubation at room temperature in the microshaker, the absorbance of the sample was measured by the microplate spectrophotometer reader (Molecular Devices, Sunnyvale, CA, USA) at 570 nm. The cell viability rate (%) was calculated as the absorbance of treated cells divided by that of control cells. The viability of the control cells was defined as 100%. Three independent experiments were performed in triplicate.

| Molecule | donepezil excreted into urine [1] [%] | reduction of cell viability compared to vehicle treatment [2] [%] |
| --- | --- | --- |
| COc1cc2c(cc1OC)C(=O)C(CC1CCN(Cc3ccccc3)CC1)C2 (centres unmarked) [DNP, Donepezil hydrochloride] | 1.52 | – |
| Aβ(25–35): β-amyloid fragment used to induce neurotoxicity in SH-SY5Y cells (GSNKGAIIGLM; Amyloid-beta protein 42; UniProt P05067 696-706, looked up, fragment) | – | 36.0 |
